# Data as given in EP0603240B1, “SAFENING HERBICIDAL PYRAZOLYLSULFONYLUREAS” (priority 1991, dated 1993).
# Experiments:
# Assay type in all cases: in vivo
# [1] = tested on: barnyardgrass (Echinochloa crusgalli); assay: Example 6, Procedure II: Herbicide No. 1 + alachlor (No. 7) with antidotes
# Experimental: (§1) Containers were filled and compacted with a fumigated silt loam top soil to a depth of about 1.3 cm from the top of the container. A first container was designated as an untreated control, a second container was designated as a herbicide control, and a third container was designated as a herbicide + antidote test container. Each of the containers was seeded with a crop species. A measured amount of herbicide dispersed or dissolved in acetone was applied to a measured quantity of soil. To this same quantity of soil treated with herbicide, there was added a measured amount of antidote dispersed or dissolved in acetone. The quantity of soil treated with the herbicide and antidote was thoroughly mixed to incorporate the herbicide and antidote in the soil uniformly. The seed bed in the third container of soil was covered with the soil treated with the herbicide and antidote and the container was leveled. For each test series, the seed beds of the first and second containers were likewise covered by soil layers. the cover layer of the first container was not treated with herbicide or antidote.
# (§2) The containers were then placed on a bench in a greenhouse and sub-irrigated as required for the duration of the test. […] Plant response is measured in terms of percent injury. Antidote efficacy is indicated as the difference in plant injury by the herbicide(s) without the antidote and with the antidote.
# (§3) This procedure is the same as Procedure I, but modified in the manner that after incorporation of the chemicals (herbicide and antidote) the containers with the covered seedbed were treated with an initial overhead irrigation equivalent to 0.6 cm rainfall, then subsequently sub-irrigated as required on greenhouse benches.
# (§4) In the series of greenhouse tests described below, for routine screening purposes the herbicide/antidote compositions were tested in crop/weed combinations involving corn as the crop and either or both of the weeds barnyardgrass (Echinochloa crusgalli), a monocotyledonous weed, and velvetleaf (Abutilon theophrasti), a dicotyledonous weed. In the tables below, these weeds are indicated by the symbols "BYG" and "VL", respectively.
# (§5) This example was designed to investigate the antidotal efficacy of a plurality of antidotal compounds against a composition comprising Herbicide No. 1 in combination with Herbicide No. 7 (alachlor). The antidotal compounds used herein were Nos. 1, 2, 7, 13 and 15.
# (§6) In this example, Procedure II described above was followed. The data from the tests in this example is shown in Table 6 and represents averages of duplicate replications.
# [2] = tested on: velvetleaf (Abutilon theophrasti); assay: as above
# Experimental: as §1, §2, §3, §4, §5, §6
# corn [3] = assay: Example 18, Procedure II: Herbicide No. 1 + ERADICANE (EPTC + R-25788) with auxiliary antidotes
# Summary of the method: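 Corn seeded in silt loam and covered with soil into which herbicide and antidote, in acetone, were mixed; EPTC given as ERADICANE (with R-25788) at 8.96 kg/ha. Overhead irrigation equal to 0.6 cm rainfall, then greenhouse sub-irrigation. Percent injury scored; antidote efficacy as injury difference with versus without antidote.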
# corn [4] = assay: Example 19, Procedure II: Herbicide No. 1 + ERADICANE EXTRA with added antidotes
# Summary of the method: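 Corn seeded in silt loam, covered with soil incorporating herbicide plus antidote (from acetone); EPTC given as ERADICANE EXTRA (with R-29148 and dietholate). Initial overhead irrigation equal to 0.6 cm rain, then greenhouse sub-irrigation. Percent injury scored; efficacy is injury without antidote minus injury with it.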
# [5] = tested on: barnyardgrass (Echinochloa crusgalli); assay: Example 22: retest of Example 21 at reduced greenhouse temperatures; conditions: Table 22
# Experimental: as §1, §2, §3, §4
# (§7) In this example, tests were conducted as in the preceding Examples 18-20, except here the co-herbicidal component was SUTAN® PLUS, a commercial product comprising as the active herbicidal ingredient the compound butylate (Herbicide No. 10) and an antidote […] (Antidote No. 1). Again, the antidotal compounds herein were Nos. 1, 2, 7, 13 and 15. Procedure II was used.
# (§8) The experiments in this example were designed as a retest of those described in Example 21 in view of the uncharacteristically poor corn safety and weed control, believed to have resulted from unseasonably high temperatures in the greenhouse. Accordingly, temperatures were reduced for these tests.
# [6] = tested on: velvetleaf (Abutilon theophrasti); assay: as above; conditions: Table 22
# Experimental: as §1, §2, §3, §4, §7, §8
# [7] = Herbicide No.1 0.14 + No.7 4.48 kg/ha + antidote 2.24 kg/ha
# [8] = Herbicide No.1 0.14 + No.7 4.48 kg/ha + antidote 8.96 kg/ha
# [9] = Herbicide No.1 0.56 + No.7 4.48 kg/ha + antidote 2.24 kg/ha
# [10] = Herbicide No.1 0.56 + No.7 4.48 kg/ha + antidote 8.96 kg/ha
# [11] = Herbicide No.1 0.56 kg/ha + ERADICANE 8.96 kg/ha, antidote 2.24 kg/ha
# [12] = Herbicide No.1 0.56 kg/ha + ERADICANE 8.96 kg/ha, antidote 8.96 kg/ha
# [13] = Herbicide No.1 1.12 kg/ha + ERADICANE 8.96 kg/ha, antidote 2.24 kg/ha
# [14] = Herbicide No.1 1.12 kg/ha + ERADICANE 8.96 kg/ha, antidote 8.96 kg/ha
# [15] = Herbicide No.1 0.56 kg/ha + ERADICANE EXTRA 8.96 kg/ha, antidote 2.24 kg/ha
# [16] = Herbicide No.1 0.56 kg/ha + ERADICANE EXTRA 8.96 kg/ha, antidote 8.96 kg/ha
# [17] = Herbicide No.1 1.12 kg/ha + ERADICANE EXTRA 8.96 kg/ha, antidote 2.24 kg/ha
# [18] = Herbicide No.1 1.12 kg/ha + ERADICANE EXTRA 8.96 kg/ha, antidote 8.96 kg/ha
# [19] = Herbicide No.1 0.56 Kg/ha + SUTAN + 8.96 Kg/ha + antidote 2.24 Kg/ha
# [20] = Herbicide No.1 0.56 Kg/ha + SUTAN + 8.96 Kg/ha + antidote 8.96 Kg/ha
# [21] = Herbicide No.1 1.12 Kg/ha + SUTAN + 8.96 Kg/ha + antidote 2.24 Kg/ha
# [22] = Herbicide No.1 1.12 Kg/ha + SUTAN + 8.96 Kg/ha + antidote 8.96 Kg/ha
SMILES,"% Injury BYG [1, 7] [%]","% Injury BYG [1, 8] [%]","% Injury BYG [1, 9] [%]","% Injury BYG [1, 10] [%]","% Injury VL [2, 7] [%]","% Injury VL [2, 8] [%]","% Injury VL [2, 9] [%]","% Injury VL [2, 10] [%]",% Injury Corn (corn [3]; [11]) [%],% Injury Corn (corn [3]; [12]) [%],% Injury Corn (corn [3]; [13]) [%],% Injury Corn (corn [3]; [14]) [%],% Injury Corn (corn [4]; [15]) [%],% Injury Corn (corn [4]; [16]) [%],% Injury Corn (corn [4]; [17]) [%],% Injury Corn (corn [4]; [18]) [%],"% Injury BYG [5, 19] [%]","% Injury BYG [5, 20] [%]","% Injury BYG [5, 21] [%]","% Injury BYG [5, 22] [%]",also measured
O=C1OC(=O)c2cccc3cccc1c23 [compound 2],100,100,100,100,70,75,90,90,15,25,20,20,20,25,25,20,80,90,85,90,"% Injury VL [6, 19]: 80%; % Injury VL [6, 20]: 90%; % Injury VL [6, 21]: 93%; % Injury VL [6, 22]: 90%"
O=C(C(Cl)Cl)N1CCOC12CCCCC2 [compound 7],100,100,100,100,75,75,90,90,15,20,15,10,15,20,25,25,90,90,95,80,"% Injury VL [6, 19]: 80%; % Injury VL [6, 20]: 75%; % Injury VL [6, 21]: 97%; % Injury VL [6, 22]: 70%"
CC1(C(Cl)Cl)OCCO1 [compound 13],100,100,100,100,75,65,90,90,10,20,10,40,25,15,20,15,90,90,95,93,"% Injury VL [6, 19]: 85%; % Injury VL [6, 20]: 95%; % Injury VL [6, 21]: 95%; % Injury VL [6, 22]: 90%"
